Reference: ChEMBL document CHEMBL1126805, “Synthesis and evaluation of a series of benzylaniline hydrochlorides as potential cytotoxic and antimitotic agents acting by inhibition of tubulin polymerization” (J Med Chem, 1993)

Experiments:
DMS-273 [1] = assay: Tested for cytotoxicity against DMS 273 (small-cell lung cancer) cell line.; assay type: functional, Homo sapiens
Tubulin = Tubulin (Bos taurus, UniProt Q6B856+Q862F3); assay: In vitro inhibition of bovine electrophoretically homogeneous tubulin polymerization.; assay type: functional
NCI-H522 [2] = assay: Tested for cytotoxicity against NCI-H522 (non-small-cell lung cancer) cell line.; assay type: functional, Homo sapiens
OVCAR-3 [3] = assay: Tested for cytotoxicity against OVCAR-3 (ovarian cancer) cell line.; assay type: functional, Homo sapiens
M14 [4] = assay: Tested for cytotoxicity against M14 melanoma; assay type: functional, Homo sapiens
CAKI-1 [5] = assay: Tested for cytotoxicity against CAKI-1 renal cancer; assay type: functional, Homo sapiens; details: Homo sapiens, CAKI-1
SF-295 [6] = assay: In vitro cytotoxicity against SF-295 (CNS cancer) cell line.; assay type: functional, Homo sapiens
DLD-1 = assay: Tested for cytotoxicity against DLD-1 cell lines in colon cancer; assay type: functional; details: Homo sapiens
SNB-75 = assay: Tested for cytotoxicity against SNB-75 cell lines in CNS cancer; assay type: functional; details: Homo sapiens
RPMI-8226 = assay: Tested for cytotoxicity against RPMI-8226 cell lines in leukemia; assay type: functional; details: Homo sapiens
HCT-15 = assay: Tested for cytotoxicity against HCT-15 cell lines in colon cancer; assay type: functional; details: Homo sapiens
HL-60 [7] = assay: Tested for cytotoxicity against HL-60 (TB) cell lines in leukemia; assay type: functional; details: Homo sapiens
M19-MEL = assay: Tested for cytotoxicity against M19-MEL cell lines in melanoma; assay type: functional; details: Homo sapiens
HCT-116 = assay: Tested for cytotoxicity against HCT116 cell lines in colon cancer; assay type: functional; details: Homo sapiens
LOX IMVI = assay: Tested for cytotoxicity against LOX IMVI cell lines in melanoma; assay type: functional; details: Homo sapiens
SK-OV-3 = assay: Tested for cytotoxicity against SK-OV-3 cell lines in ovarian cancer; assay type: functional; details: Homo sapiens
SF-295 [8] = assay: (§1) Tested for cytotoxicity against SF-295 cell lines in CNS cancer; assay type: functional; details: Homo sapiens
HOP-92 = assay: Tested for cytotoxicity against HOP-92 cell lines in non-small-cell lung cancer; assay type: functional; details: Homo sapiens
LXFL 529 = assay: Tested for cytotoxicity against LXFL529 cell lines in non-small-cell lung cancer; assay type: functional; details: Homo sapiens
NCI-H460 = assay: Tested for cytotoxicity against NCI-H460 cell lines in non-small-cell lung cancer; assay type: functional; details: Homo sapiens
A549 = assay: Tested for cytotoxicity against A549/ATCC cell lines in non-small-cell lung cancer; assay type: functional; details: Homo sapiens
NCI-H522 [9] = assay: (§2) Tested for cytotoxicity against NCI-H522 cell lines in non-small-cell lung cancer; assay type: functional; details: Homo sapiens
A498 = assay: Tested for cytotoxicity against A498 cell lines in renal cancer; assay type: functional; details: Homo sapiens
ACHN = assay: Tested for cytotoxicity against ACHN cell lines in renal cancer; assay type: functional; details: Homo sapiens
HL-60 [10] = assay: Tested for cytotoxicity against human cancer cell lines HL-60(TB) (leukemia) cell line.; assay type: functional
UACC-62 = assay: Tested for cytotoxicity against UACC-62 cell lines in melanoma; assay type: functional; details: Homo sapiens
CAKI-1 [11] = assay: (§3) Tested for cytotoxicity against CAKI-1 cell lines in renal cancer; assay type: functional; details: Homo sapiens
M14 [12] = assay: (§4) Tested for cytotoxicity against M14 cell lines in melanoma; assay type: functional; details: Homo sapiens
HT-29 = assay: Tested for cytotoxicity against HT-29 cell lines in colon cancer; assay type: functional; details: Homo sapiens
KM12 = assay: Tested for cytotoxicity against KM12 cell lines in colon cancer; assay type: functional; details: Homo sapiens
NCI-H322M = assay: Tested for cytotoxicity against NCI-H322M cell lines in non-small-cell lung cancer; assay type: functional; details: Homo sapiens
SF-539 = assay: Tested for cytotoxicity against SF-539 cell lines in CNS cancer; assay type: functional; details: Homo sapiens
KM-20L2 = assay: Tested for cytotoxicity against KM20L2 cell lines in colon cancer; assay type: functional; details: Homo sapiens
Malme-3M = assay: Tested for cytotoxicity against MALME-3M cell lines in melanoma; assay type: functional; details: Homo sapiens
TK-10 = assay: Tested for cytotoxicity against TK-10 cell lines in renal cancer; assay type: functional; details: Homo sapiens
SNB-78 = assay: Tested for cytotoxicity against SNB-78 cell lines in CNS cancer; assay type: functional; details: Homo sapiens
CAKI-1 [13] = assay: as §3; assay type: functional; details: Homo sapiens; remark: listed apart in the source
OVCAR-4 = assay: Tested for cytotoxicity against OVCAR-4 cell lines in ovarian cancer; assay type: functional; details: Homo sapiens
SK-MEL-2 = assay: Tested for cytotoxicity against SK-MEL-2 cell lines in melanoma; assay type: functional; details: Homo sapiens
786-0 = assay: Tested for cytotoxicity against 786-0 cell lines in renal cancer; assay type: functional; details: Homo sapiens
NCI-H23 = assay: Tested for cytotoxicity against NCI-H23 cell lines in non-small-cell lung cancer; assay type: functional; details: Homo sapiens
DMS-273 [14] = assay: Tested for cytotoxicity against DMS 273 cell lines in small-cell lung cancer; assay type: functional; details: Homo sapiens
HOP-62 = assay: Tested for cytotoxicity against HOP-62 cell lines in non-small-cell lung cancer; assay type: functional; details: Homo sapiens
EKVX = assay: Tested for cytotoxicity against […] cell lines in non-small-cell lung cancer; assay type: functional; details: Homo sapiens
SNB-19 = assay: Tested for cytotoxicity against SNB-19 cell lines in CNS cancer; assay type: functional; details: Homo sapiens
UACC-257 = assay: Tested for cytotoxicity against UACC-257 cell lines in melanoma; assay type: functional; details: Homo sapiens
SN12C = assay: Tested for cytotoxicity against SN12C cell lines in renal cancer; assay type: functional; details: Homo sapiens
SF-268 = assay: Tested for cytotoxicity against SF-268 cell lines in CNS cancer; assay type: functional; details: Homo sapiens
SK-MEL-5 = assay: Tested for cytotoxicity against SK-MEL-5 cell lines in melanoma; assay type: functional; details: Homo sapiens
HOP-18 = assay: Tested for cytotoxicity against HOP-18 cell lines in non-small-cell lung cancer; assay type: functional; details: Homo sapiens
SF-295 [15] = assay: as §1; assay type: functional; details: Homo sapiens; remark: listed apart in the source
OVCAR-5 = assay: Tested for cytotoxicity against OVCAR-5 cell lines in ovarian cancer; assay type: functional; details: Homo sapiens
U-251 = assay: Tested for cytotoxicity against U251 cell lines in CNS cancer; assay type: functional; details: Homo sapiens
M14 [16] = assay: as §4; assay type: functional; details: Homo sapiens; remark: listed apart in the source
DMS-114 = assay: Tested for cytotoxicity against DMS114 cell lines in small-cell lung cancer; assay type: functional; details: Homo sapiens
UO-31 = assay: Tested for cytotoxicity against UO-31 cell lines in renal cancer; assay type: functional; details: Homo sapiens
OVCAR-8 = assay: Tested for cytotoxicity against OVCAR-8 cell lines in ovarian cancer; assay type: functional; details: Homo sapiens
DMS-273 [17] = assay: Tested for cytotoxicity against DMS273 cell lines in small-cell lung cancer; assay type: functional; details: Homo sapiens
NCI-H522 [18] = assay: as §2; assay type: functional; details: Homo sapiens; remark: listed apart in the source
COLO 205 [19] = assay: (§5) Tested for cytotoxicity against COLO 205 cell lines in colon cancer; assay type: functional; details: Homo sapiens
CCRF-CEM = assay: Tested for cytotoxicity against CCRF-CEM cell lines in leukemia; assay type: functional; details: Homo sapiens
RXF 393 = assay: Tested for cytotoxicity against RXF-393 cell lines in renal cancer; assay type: functional; details: Homo sapiens
K562 = assay: Tested for cytotoxicity against K-562 cell lines in leukemia; assay type: functional; details: Homo sapiens
SW-620 = assay: Tested for cytotoxicity against SW-620 cell lines in colon cancer; assay type: functional; details: Homo sapiens
IGROV-1 = assay: Tested for cytotoxicity against IGROV1 cell lines in ovarian cancer; assay type: functional; details: Homo sapiens
MOLT-4 = assay: Tested for cytotoxicity against MOLT-4 cell lines in leukemia; assay type: functional; details: Homo sapiens
COLO 205 [20] = assay: as §5; assay type: functional; details: Homo sapiens; remark: listed apart in the source
OVCAR-3 [21] = assay: Tested for cytotoxicity against OVCAR-3 cell lines in ovarian cancer; assay type: functional; details: Homo sapiens
XF498 = assay: Tested for cytotoxicity against XF 498 cell lines in CNS cancer; assay type: functional; details: Homo sapiens
COLO 205 [22] = assay: Tested for cytotoxicity against COLO 205 (colon cancer) cell line.; assay type: functional, Homo sapiens

Tubulin, sequence (Q6B856 whole entry): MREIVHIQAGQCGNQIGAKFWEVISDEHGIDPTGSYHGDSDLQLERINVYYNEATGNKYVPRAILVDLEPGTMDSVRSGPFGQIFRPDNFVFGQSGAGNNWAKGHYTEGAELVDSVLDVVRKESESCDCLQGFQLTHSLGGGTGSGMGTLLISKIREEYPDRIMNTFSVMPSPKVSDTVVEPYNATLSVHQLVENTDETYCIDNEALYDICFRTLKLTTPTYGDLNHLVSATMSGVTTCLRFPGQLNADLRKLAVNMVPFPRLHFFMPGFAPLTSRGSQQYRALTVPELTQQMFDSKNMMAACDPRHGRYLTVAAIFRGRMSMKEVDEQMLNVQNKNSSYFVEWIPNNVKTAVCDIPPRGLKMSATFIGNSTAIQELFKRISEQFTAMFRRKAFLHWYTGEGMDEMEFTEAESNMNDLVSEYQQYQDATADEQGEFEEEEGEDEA
Tubulin, sequence (Q862F3 whole entry): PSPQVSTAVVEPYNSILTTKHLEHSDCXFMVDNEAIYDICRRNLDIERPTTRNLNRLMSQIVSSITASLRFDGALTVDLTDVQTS

SMILES: COc1cc(CNc2ccc(C(C)C)cc2)cc(OC)c1OC
- GI50 (DMS-273 [1]; Homo sapiens, DMS-273): 12900 nM
- IC50 (Tubulin): > 40000 nM

SMILES: CCc1ccc(/N=C/c2cc(OC)c(OC)c(OC)c2)cc1
- GI50 (DMS-273 [1]; Homo sapiens, DMS-273): > 100000 nM
- IC50 (Tubulin): > 40000 nM
- GI50 (NCI-H522 [2]; Homo sapiens, NCI-H522): > 100000 nM
- GI50 (OVCAR-3 [3]; Homo sapiens, OVCAR-3): > 100000 nM
- GI50 (M14 [4]; Homo sapiens, M14): > 100000 nM
- GI50 (CAKI-1 [5]): > 100000 nM
- GI50 (SF-295 [6]; Homo sapiens, SF-295): > 100000 nM

SMILES: COc1cc(CNc2ccc(C)cc2)cc(OC)c1OC
- GI50 (DLD-1): 575 nM
- GI50 (SNB-75): 389 nM
- GI50 (RPMI-8226): 437 nM
- GI50 (HCT-15): 245 nM
- GI50 (HL-60 [7]): 89.1 nM
- GI50 (M19-MEL): 331 nM
- GI50 (HCT-116): 575 nM
- GI50 (LOX IMVI): 851 nM
- GI50 (SK-OV-3): 269 nM
- GI50 (SF-295 [8]): 324 nM
- GI50 (HOP-92): 18600 nM
- GI50 (LXFL 529): 631 nM
- IC50 (Tubulin): 3500 nM
- GI50 (NCI-H460): 214 nM
- GI50 (A549): 513 nM
- GI50 (NCI-H522 [9]): 204 nM
- GI50 (A498): > 100000 nM
- GI50 (ACHN): 97.7 nM
- GI50 (HL-60 [10]): 722 nM
- GI50 (UACC-62): 575 nM
- GI50 (CAKI-1 [11]): 13.2 nM
- GI50 (M14 [12]): 292 nM
- GI50 (HT-29): 347 nM
- GI50 (KM12): 759 nM
- GI50 (NCI-H322M): 501 nM
- GI50 (SF-539): 316 nM
- GI50 (KM-20L2): 251 nM
- GI50 (Malme-3M): 468 nM
- GI50 (TK-10): > 100000 nM
- GI50 (SNB-78): 1100 nM
- GI50 (CAKI-1 [13]): 162 nM
- GI50 (OVCAR-4): 21400 nM
- GI50 (SK-MEL-2): 132 nM
- GI50 (786-0): 324 nM
- GI50 (NCI-H23): 407 nM
- GI50 (DMS-273 [14]): 104 nM
- GI50 (HOP-62): 282 nM
- GI50 (EKVX): 741 nM
- GI50 (SNB-19): 295 nM
- GI50 (UACC-257): > 100000 nM
- GI50 (SN12C): 851 nM
- GI50 (SF-268): 912 nM
- GI50 (SK-MEL-5): 912 nM
- GI50 (HOP-18): 37200 nM
- GI50 (SF-295 [15]): 233 nM
- GI50 (OVCAR-5): 1350 nM
- GI50 (U-251): 331 nM
- GI50 (M14 [16]): < 10 nM
- GI50 (DMS-114): 427 nM
- GI50 (UO-31): 832 nM
- GI50 (OVCAR-8): 759 nM
- GI50 (DMS-273 [17]): 93.3 nM
- GI50 (NCI-H522 [18]): 262 nM
- GI50 (COLO 205 [19]): 214 nM
- GI50 (CCRF-CEM): 282 nM
- GI50 (RXF 393): 112 nM
- GI50 (K562): 100 nM
- GI50 (SW-620): 110 nM
- GI50 (IGROV-1): 708 nM
- GI50 (MOLT-4): 427 nM
- GI50 (COLO 205 [20]): 219 nM
- GI50 (OVCAR-3 [21]): 214 nM
- GI50 (XF498): 468 nM

SMILES: COc1ccc(/C=C\c2cc(OC)c(OC)c(OC)c2)cc1
- IC50 (Tubulin): 2000 nM

SMILES: CCc1ccc(NCc2cc(OC)c(OC)c(OC)c2)cc1
- GI50 (DMS-273 [1]): 818 nM
- IC50 (Tubulin): 7200 nM
- GI50 (HL-60 [10]): 245 nM
- GI50 (COLO 205 [22]): 352 nM
- GI50 (NCI-H522 [2]): 371 nM
- GI50 (OVCAR-3 [3]): 405 nM
- GI50 (M14 [4]): 437 nM
- GI50 (SF-295 [6]): 339 nM
